Source: patent US6790621B2 (Washington State University Research Foundation, priority 2001, dated 2004)

Legend:
Collies [1] = settings: Collies vs Beagles, one study; cited from earlier work
Collies [2] = assay: Ivermectin sensitivity (signs of neurotoxicosis) in Collies by mdr1 genotype; format: in vivo, dogs; settings: oral 120 μg/kg
Procedure: Blood samples (8 ml) were obtained by jugular venipuncture from each of 13 clinically healthy Collies (Wil-O-Lane Kennels, Allegan, Mich.). […] Each dog was identified by an ear tattoo and housed in a run measuring 4×8 feet with metal walls and a raised, coated, metal screen floor. Facilities exceeded the minimal requirement specified by USDA guidelines.
We took advantage of a well-defined population of ivermectin-sensitive and non-sensitive Collies (Paul et al., Amer. J. Vet. Res. 61:482-483, 2000: Fassler et al., J. Am. Vet. Med. Assoc. 199:457-460, 1991). […] Clinical signs of neurotoxicity that were evaluated include apparent depression, ataxia, mydriasis, salivation, or drooling (Paul et al., Amer. J. Vet. Res. 61:482-483, 2000). Semi-quantitative reverse transcriptase PCR analysis was conducted on RNA isolated from ivermectin-sensitive and non-sensitive Collies to determine if mdr1 expression is lower in sensitive Collies than in non-sensitive Collies. Amplification of a 229-bp product of the canine glyceraldehyde 3-phosphate dehydrogenase (GAPDH) gene was used as an internal standard to control for variability in reverse transcriptase and PCR reactions.

Collies [3] = assay: Loperamide neurotoxicity in Collies; format: in vivo, dogs; settings: one Collie of the study, homozygous for the mutant allele, treated with an appropriate dose as a puppy
From the text: Determination of the genotype of Collies is important clinically for several reasons. […] The dog tested homozygous for the mutant allele.

Collies [4] = settings: cited from earlier work

Ivermectin
fraction of the lethal dose of ivermectin for Beagles that was lethal for Collies (Collies [1]): 1/200 | ivermectin sensitivity (neurotoxicity) (Collies [2]; Collies heterozygous (normal/mutant) or homozygous normal): not sensitive to ivermectin neurotoxicity | ivermectin sensitivity (neurotoxicity) (Collies [2]; Collies homozygous for the mdr1 deletion (mutant/mutant)): exhibit ivermectin sensitivity

CN(C)C(=O)C(CCN1CCC(O)(c2ccc(Cl)cc2)CC1)(c1ccccc1)c1ccccc1 [loperamide, Loperamide]
neurologic toxicity (Collies [3]): severe (nearly fatal) neurologic toxicity | concentration in brain tissue (Collies [4]; affected Collies): high concentrations in brain tissue | neurotoxicity in Collies (Collies [4]; doses routinely used in other breeds): cause neurotoxicity
